± gives the expanded uncertainty stated by the source.
Assays:
[1] = xn = mol fraction of the nth substance listed; conditions: 101 kPa, Liquid
[2] = refractive index (Na D-line) (dimensionless); xn = mol fraction of the nth substance listed; conditions: 101 kPa, Liquid
[3] = 101 kPa, Liquid
[4] = refractive index (Na D-line) (dimensionless); conditions: 101.33 kPa, Liquid

With CCCCO [butan-1-ol] + COc1ccccc1 the mass density ([1]; 298.15 K, x2 = 0) was 806.12 ± 14 kg/m3, the speed of sound ([1]; 298.15 K, x2 = 0) was 1246 ± 43 m/s and the viscosity ([1]; 298.15 K, x2 = 0) was 2.585 ± 0.3 mPa·s. It also gave a mass density ([1]; 303.15 K, x2 = 0) of 802.28 ± 14 kg/m3, a viscosity ([1]; 303.15 K, x2 = 0) of 2.284 ± 0.27 mPa·s and a mass density ([1]; 308.15 K, x2 = 0) of 798.41 ± 14 kg/m3. The viscosity ([1]; 308.15 K, x2 = 0) was 1.981 ± 0.24 mPa·s, the refractive index ([2]; 298.15 K, x2 = 0) was 1.3968 ± 0.005 and the refractive index ([2]; 303.15 K, x2 = 0) was 1.3944 ± 0.005. For the same compound, the refractive index ([2]; 308.15 K, x2 = 0) was 1.3923 ± 0.005.
Compound COc1ccccc1 [anisole] + CCCCCO has a mass density ([1]; 298.15 K, x1 = 0.1013) of 828.63 ± 3.3 kg/m3, a speed of sound ([1]; 298.15 K, x1 = 0.1013) of 1298 ± 45 m/s and a viscosity ([1]; 298.15 K, x1 = 0.1013) of 2.677 ± 0.31 mPa·s. The mass density ([1]; 298.15 K, x1 = 0.2032) was 846.67 ± 3.1 kg/m3, the speed of sound ([1]; 298.15 K, x1 = 0.2032) was 1311 ± 45 m/s and the viscosity ([1]; 298.15 K, x1 = 0.2032) was 2.005 ± 0.24 mPa·s. For the same compound, the mass density ([1]; 298.15 K, x1 = 0.3022) was 864.26 ± 2.9 kg/m3, the speed of sound ([1]; 298.15 K, x1 = 0.3022) was 1324 ± 45 m/s and the viscosity ([1]; 298.15 K, x1 = 0.3022) was 1.743 ± 0.21 mPa·s. For the same compound, the mass density ([1]; 298.15 K, x1 = 0.3946) was 880.67 ± 2.7 kg/m3, the speed of sound ([1]; 298.15 K, x1 = 0.3946) was 1336 ± 46 m/s and the viscosity ([1]; 298.15 K, x1 = 0.3946) was 1.513 ± 0.18 mPa·s. For the same compound, the mass density ([1]; 298.15 K, x1 = 0.4912) was 897.83 ± 2.5 kg/m3, the speed of sound ([1]; 298.15 K, x1 = 0.4912) was 1350 ± 46 m/s and the viscosity ([1]; 298.15 K, x1 = 0.4912) was 1.318 ± 0.16 mPa·s. For the same compound, the mass density ([1]; 298.15 K, x1 = 0.5984) was 916.91 ± 2.3 kg/m3, the speed of sound ([1]; 298.15 K, x1 = 0.5984) was 1361 ± 46 m/s and the viscosity ([1]; 298.15 K, x1 = 0.5984) was 1.18 ± 0.15 mPa·s. It also gave a mass density ([1]; 298.15 K, x1 = 0.6976) of 934.59 ± 2.1 kg/m3, a speed of sound ([1]; 298.15 K, x1 = 0.6976) of 1374 ± 46 m/s and a viscosity ([1]; 298.15 K, x1 = 0.6976) of 1.092 ± 0.14 mPa·s. The mass density ([1]; 298.15 K, x1 = 0.7965) was 952.41 ± 1.9 kg/m3, the speed of sound ([1]; 298.15 K, x1 = 0.7965) was 1388 ± 47 m/s and the viscosity ([1]; 298.15 K, x1 = 0.7965) was 1.004 ± 0.13 mPa·s. For the same compound, the mass density ([1]; 298.15 K, x1 = 0.8974) was 970.59 ± 1.8 kg/m3, the speed of sound ([1]; 298.15 K, x1 = 0.8974) was 1395 ± 47 m/s and the viscosity ([1]; 298.15 K, x1 = 0.8974) was 0.955 ± 0.12 mPa·s. The mass density ([1]; 298.15 K, x1 = 1) was 989.15 ± 1.6 kg/m3, the speed of sound ([1]; 298.15 K, x1 = 1) was 1412 ± 47 m/s and the viscosity ([1]; 298.15 K, x1 = 1) was 0.988 ± 0.13 mPa·s. For the same compound, the mass density ([1]; 303.15 K, x1 = 0.1013) was 824.77 ± 3.3 kg/m3, the viscosity ([1]; 303.15 K, x1 = 0.1013) was 2.332 ± 0.27 mPa·s and the mass density ([1]; 303.15 K, x1 = 0.2032) was 842.67 ± 3.1 kg/m3. For the same compound, the viscosity ([1]; 303.15 K, x1 = 0.2032) was 1.773 ± 0.21 mPa·s, the mass density ([1]; 303.15 K, x1 = 0.3022) was 860.11 ± 2.9 kg/m3 and the viscosity ([1]; 303.15 K, x1 = 0.3022) was 1.545 ± 0.19 mPa·s. For the same compound, the mass density ([1]; 303.15 K, x1 = 0.3946) was 876.42 ± 2.8 kg/m3, the viscosity ([1]; 303.15 K, x1 = 0.3946) was 1.359 ± 0.17 mPa·s and the mass density ([1]; 303.15 K, x1 = 0.4912) was 893.47 ± 2.6 kg/m3. It also gave a viscosity ([1]; 303.15 K, x1 = 0.4912) of 1.195 ± 0.15 mPa·s, a mass density ([1]; 303.15 K, x1 = 0.5984) of 912.45 ± 2.4 kg/m3 and a viscosity ([1]; 303.15 K, x1 = 0.5984) of 1.072 ± 0.14 mPa·s. It also gave a mass density ([1]; 303.15 K, x1 = 0.6976) of 930.04 ± 2.2 kg/m3, a viscosity ([1]; 303.15 K, x1 = 0.6976) of 0.999 ± 0.13 mPa·s and a mass density ([1]; 303.15 K, x1 = 0.7965) of 947.78 ± 2 kg/m3. It also gave a viscosity ([1]; 303.15 K, x1 = 0.7965) of 0.927 ± 0.12 mPa·s, a mass density ([1]; 303.15 K, x1 = 0.8974) of 965.9 ± 1.8 kg/m3 and a viscosity ([1]; 303.15 K, x1 = 0.8974) of 0.88 ± 0.11 mPa·s. It also gave a mass density ([1]; 303.15 K, x1 = 1) of 984.45 ± 1.6 kg/m3, a viscosity ([1]; 303.15 K, x1 = 1) of 0.913 ± 0.12 mPa·s and a mass density ([1]; 308.15 K, x1 = 0.1013) of 820.91 ± 3.4 kg/m3. It also gave a viscosity ([1]; 308.15 K, x1 = 0.1013) of 2.051 ± 0.24 mPa·s, a mass density ([1]; 308.15 K, x1 = 0.2032) of 838.66 ± 3.2 kg/m3 and a viscosity ([1]; 308.15 K, x1 = 0.2032) of 1.575 ± 0.19 mPa·s. For the same compound, the mass density ([1]; 308.15 K, x1 = 0.3022) was 855.96 ± 3 kg/m3, the viscosity ([1]; 308.15 K, x1 = 0.3022) was 1.384 ± 0.17 mPa·s and the mass density ([1]; 308.15 K, x1 = 0.3946) was 872.17 ± 2.8 kg/m3. For the same compound, the viscosity ([1]; 308.15 K, x1 = 0.3946) was 1.219 ± 0.15 mPa·s, the mass density ([1]; 308.15 K, x1 = 0.4912) was 889.11 ± 2.6 kg/m3 and the viscosity ([1]; 308.15 K, x1 = 0.4912) was 1.091 ± 0.14 mPa·s. It also gave a mass density ([1]; 308.15 K, x1 = 0.5984) of 907.98 ± 2.4 kg/m3, a viscosity ([1]; 308.15 K, x1 = 0.5984) of 0.979 ± 0.12 mPa·s and a mass density ([1]; 308.15 K, x1 = 0.6976) of 925.49 ± 2.2 kg/m3. The viscosity ([1]; 308.15 K, x1 = 0.6976) was 0.916 ± 0.12 mPa·s, the mass density ([1]; 308.15 K, x1 = 0.7965) was 943.15 ± 2 kg/m3 and the viscosity ([1]; 308.15 K, x1 = 0.7965) was 0.853 ± 0.11 mPa·s. For the same compound, the mass density ([1]; 308.15 K, x1 = 0.8974) was 961.2 ± 1.9 kg/m3, the viscosity ([1]; 308.15 K, x1 = 0.8974) was 0.919 ± 0.12 mPa·s and the mass density ([1]; 308.15 K, x1 = 1) was 979.73 ± 1.7 kg/m3. For the same compound, the viscosity ([1]; 308.15 K, x1 = 1) was 0.854 ± 0.11 mPa·s, the refractive index ([2]; 298.15 K, x1 = 0.1013) was 1.4091 ± 0.005 and the refractive index ([2]; 298.15 K, x1 = 0.2032) was 1.4166 ± 0.005. It also gave a refractive index ([2]; 298.15 K, x1 = 0.3022) of 1.4237 ± 0.005, a refractive index ([2]; 298.15 K, x1 = 0.3946) of 1.4333 ± 0.005 and a refractive index ([2]; 298.15 K, x1 = 0.4912) of 1.4429 ± 0.005. The refractive index ([2]; 298.15 K, x1 = 0.5984) was 1.4561 ± 0.005, the refractive index ([2]; 298.15 K, x1 = 0.6976) was 1.4667 ± 0.005 and the refractive index ([2]; 298.15 K, x1 = 0.7965) was 1.4807 ± 0.005. It also gave a refractive index ([2]; 298.15 K, x1 = 0.8974) of 1.4963 ± 0.005, a refractive index ([2]; 298.15 K, x1 = 1) of 1.5137 ± 0.005 and a refractive index ([2]; 303.15 K, x1 = 0.1013) of 1.4066 ± 0.005. It also gave a refractive index ([2]; 303.15 K, x1 = 0.2032) of 1.4138 ± 0.005, a refractive index ([2]; 303.15 K, x1 = 0.3022) of 1.4219 ± 0.005 and a refractive index ([2]; 303.15 K, x1 = 0.3946) of 1.4302 ± 0.005. The refractive index ([2]; 303.15 K, x1 = 0.4912) was 1.4401 ± 0.005, the refractive index ([2]; 303.15 K, x1 = 0.5984) was 1.4533 ± 0.005 and the refractive index ([2]; 303.15 K, x1 = 0.6976) was 1.4642 ± 0.005. For the same compound, the refractive index ([2]; 303.15 K, x1 = 0.7965) was 1.4778 ± 0.005, the refractive index ([2]; 303.15 K, x1 = 0.8974) was 1.4934 ± 0.005 and the refractive index ([2]; 303.15 K, x1 = 1) was 1.5113 ± 0.005. The refractive index ([2]; 308.15 K, x1 = 0.1013) was 1.404 ± 0.005, the refractive index ([2]; 308.15 K, x1 = 0.2032) was 1.4112 ± 0.005 and the refractive index ([2]; 308.15 K, x1 = 0.3022) was 1.4201 ± 0.005. The refractive index ([2]; 308.15 K, x1 = 0.3946) was 1.4272 ± 0.005, the refractive index ([2]; 308.15 K, x1 = 0.4912) was 1.4379 ± 0.005 and the refractive index ([2]; 308.15 K, x1 = 0.5984) was 1.451 ± 0.005. It also gave a refractive index ([2]; 308.15 K, x1 = 0.6976) of 1.4616 ± 0.005, a refractive index ([2]; 308.15 K, x1 = 0.7965) of 1.4747 ± 0.005 and a refractive index ([2]; 308.15 K, x1 = 0.8974) of 1.491 ± 0.005. It also gave a refractive index ([2]; 308.15 K, x1 = 1) of 1.5088 ± 0.005.
Work on COc1ccccc1 [anisole] yielded a mass density ([3]; 298.15 K) of 989.15 ± 1.6 kg/m3, a speed of sound ([3]; 298.15 K) of 1412 ± 95 m/s and a viscosity ([3]; 298.15 K) of 0.988 ± 0.13 mPa·s. For the same compound, the mass density ([3]; 303.15 K) was 984.45 ± 1.6 kg/m3, the viscosity ([3]; 303.15 K) was 0.913 ± 0.12 mPa·s and the mass density ([3]; 308.15 K) was 979.73 ± 1.7 kg/m3. For the same compound, the viscosity ([3]; 308.15 K) was 0.854 ± 0.11 mPa·s, the refractive index ([4]; 298.15 K) was 1.5137 ± 0.005 and the refractive index ([4]; 303.15 K) was 1.5113 ± 0.005. For the same compound, the refractive index ([4]; 308.15 K) was 1.5088 ± 0.005.
COc1ccccc1 [anisole] + CC(C)CCO showed a mass density ([1]; 298.15 K, x1 = 1) of 989.15 ± 2.7 kg/m3, a speed of sound ([1]; 298.15 K, x1 = 1) of 1412 ± 47 m/s and a viscosity ([1]; 298.15 K, x1 = 1) of 0.988 ± 0.13 mPa·s. For the same compound, the mass density ([1]; 303.15 K, x1 = 1) was 984.45 ± 2.8 kg/m3, the viscosity ([1]; 303.15 K, x1 = 1) was 0.913 ± 0.12 mPa·s and the mass density ([1]; 308.15 K, x1 = 1) was 979.73 ± 2.9 kg/m3. It also gave a viscosity ([1]; 308.15 K, x1 = 1) of 0.854 mPa·s, a refractive index ([2]; 298.15 K, x1 = 1) of 1.5137 ± 0.0025 and a refractive index ([2]; 303.15 K, x1 = 1) of 1.5113 ± 0.0025. It also gave a refractive index ([2]; 308.15 K, x1 = 1) of 1.5088 ± 0.02.
